5 compounds from US20100034867A1, “DRUG DELIVERY COATING FOR USE WITH A MEDICAL DEVICE AND METHODS OF TREATING VASCULAR INJURY” (ATRIUM MEDICAL CORPORATION, priority 2005, published 2010) can be followed below.

For data set [1], the system named is rabbit illiac arteries. Description: Methylprednisolone/Cilostazol/Paclitaxel/Taxus study: stents implanted in rabbit iliac arteries for 28 days, histomorphic and histopathologic analyses. Conditions: for reduction in neointima (in words): coated stents; for EEL Area / IEL Area / Intimal Area / Lumen Area / Stenosis: ALPHA-3 coated Atrium Flyer stent, mean ± SD.

Data set [2] relates to rabbit illiac arteries. Conditions: in vivo, 28 days.
A further data set deals with rabbit's iliac vessel. Description: Rapamycin drug eluting stents in rabbit iliac vessel (inflammation, overlapping stents). Format: in vivo. The source says: The inventors postulate, based on these animal study results, that one consequence of these types of drugs is retarded endothelial cell coverage, and that current drug eluting stents promote more chronic inflammation than would normally be present with a non drug eluting bare metal stent.

Data set [3] deals with rabbit illiac arteries. Conditions: in vivo. As to the method:
The Atrium Flyer is compared with bare metal stents, the Atrium Flyer coated with ALPHA-3 without drugs, and Cypher™ drug eluting stent. Histomorphic and histopathologic analyses are then performed.

The next data set deals with rabbit iliacs. Description: Local delivery of calcineurin inhibiting compounds after vascular injury in rabbit iliacs. The class given is in vivo. An excerpt: Studies in rabbit iliacs following vascular injury conducted by and/or on behalf of the inventors show the benefits of using calcineurin inhibiting compounds like Tacrolimus, Cyclosporin A (CsA) and Cyclosporin derivatives, in small animals like the rat, and in rabbits. […] Such vascular injury and sirolimus medicated inflammation can be characterized as having excessive giant cell formation and esinophil propagation.

Like-named read-outs stand apart in the source and are kept apart here.

Regarding `O=C1CCc2cc(OCCCCc3nnnn3C3CCCCC3)ccc2N1` [Cilostazol], in the data set with rabbit illiac arteries [1], the “reduction in neointima (in words)” value is on record as “No reduction in neointima”. Besides, the “Fibrin Score” value in the data set on rabbit illiac arteries [2] was determined as 0.

Take `C[C@H]1C[C@@H]2[C@H]([C@@H](O)C[C@@]3(C)[C@H]2CC[C@]3(O)C(=O)CO)[C@@]2(C)C=CC(=O)C=C12` [Methylprednilsolone]: in the data set with rabbit illiac arteries [1] (high dose), the “EEL Area” value worked out at 5.50 ± 0.26 mm^2, the “IEL Area” value is reported as 5.25 ± 0.24 mm^2, the “Intimal Area” value is 1.165 ± 0.231 mm^2 and the “Lumen Area” value was found to be 4.08 ± 0.21 mm^2. Also, in the data set on rabbit illiac arteries [1] (high dose), the Stenosis was 22.2 ± 1.4%. In the data set with rabbit illiac arteries [1] (low dose), the “EEL Area” value came out at 5.90 ± 0.92 mm^2, the “IEL Area” value was found to be 5.62 ± 0.90 mm^2, the “Intimal Area” value was found to be 1.054 ± 0.923 mm^2 and the “Lumen Area” value is listed as 4.42 ± 0.82 mm^2. The compound also displayed a Stenosis in the data set on rabbit illiac arteries [1] (low dose) of 21.5 ± 4.7%. Besides, in the data set with rabbit illiac arteries [1] (mid-dose), the “EEL Area” value came to 5.68 ± 0.34 mm^2, the “IEL Area” value came out at 5.40 ± 0.30 mm^2, the “Intimal Area” value worked out at 1.247 ± 0.136 mm^2 and the “Lumen Area” value is given as 4.16 ± 0.40 mm^2. The same compound returned a Stenosis in the data set with rabbit illiac arteries [1] (mid-dose) of 23.1 ± 2.2%. For the same compound, the “reduction in neointima (in words)” value in the data set on rabbit illiac arteries [1] is “No reduction in neointima”.

Regarding `CC(=O)O[C@H]1C(=O)[C@@]2(C)[C@H]([C@H](OC(=O)c3ccccc3)[C@]3(O)C[C@H](OC(=O)[C@H](O)[C@@H](NC(=O)c4ccccc4)c4ccccc4)C(C)=C1C3(C)C)[C@]1(OC(C)=O)CO[C@@H]1C[C@@H]2O` [Paclitaxel], the “in-stent neointimal growth (in words)” value in the data set on rabbit illiac arteries [1] (Atrium stents, high dose) is “suppresses in-stent neointimal growth at 28 days similarly to the Taxus™ Express stent”. Also, in the data set with rabbit illiac arteries [2], the “Fibrin Score” value came out at 0 and the “arterial healing compared with Taxus Express” value is given as “(greater) arterial healing at 28 days compared with Taxus™ Express”.

Turning to `CO[C@H]1C[C@@H]2CC[C@@H](C)[C@@](O)(O2)C(=O)C(=O)N2CCCC[C@H]2C(=O)O[C@H]([C@H](C)C[C@@H]2CC[C@@H](O)[C@H](OC)C2)CC(=O)[C@H](C)/C=C(\C)[C@@H](O)[C@@H](OC)C(=O)[C@H](C)C[C@H](C)/C=C/C=C/C=C/1C` [Sirolimus], the “arterial healing compared with Taxus Express” value in the data set on rabbit illiac arteries [1] (Atrium stents, high dose) is “(greater) arterial healing at 28 days compared with Taxus™ Express”. For the same compound, in the data set on rabbit's iliac vessel (rabbit iliacs), the “inflammatory response around the drug eluting stent” value is “presence of numerous giant cells and esinophils”. In the data set on rabbit's iliac vessel (two separate drug eluting stents overlapping in rabbit iliac vessel), the “inflammation induced by the overlapping drug coating” value is “increases nearly two fold”. In addition, the “tolerability of the coated stent” value in the data set on rabbit illiac arteries [3] was “well tolerated, producing no adverse reaction”.

Consider `C=CC[C@@H]1/C=C(\C)C[C@H](C)C[C@H](OC)[C@H]2O[C@@](O)(C(=O)C(=O)N3CCCC[C@H]3C(=O)O[C@H](/C(C)=C/[C@@H]3CC[C@@H](O)[C@H](OC)C3)[C@H](C)[C@@H](O)CC1=O)[C@H](C)C[C@@H]2OC` [Tacrolimus], for which the “inflammation following vascular injury” value in the data set on rabbit iliacs was “effectively reduce inflammation following vascular injury”.
